The record followed here is patent publication US9192560B2, “Stable composition comprising an anti-ageing compound and a solvent” (CHANEL PARFUMS BEAUTE, priority 2012, dated 2015).

Data set [1] is described as follows: Diacetylresveratryl thioctate stabilization test in candidate solvents (solubility at t0 and a day later). Conditions: for Solubility 1 D/AT / Solubility t0/AT: diacetylresveratryl thioctate in the named solvent, ambient temperature; for Solubility 1 D/AT: a day later; for Solubility t0/AT: initial; for Stability: stabilization of diacetylresveratryl thioctate by the named solvent.
Experimental: The term “stabilization” is intended to mean an absence of crystallization of diacetylresveratryl thioctate after 10 days at 4° C. and six months at AT.
The candidate solvents thus chosen are then subjected to the stabilization test. This test consists in comparing the initial solubility (t0) and the solubility a day later (1D) at ambient temperature (AT).

Data set [2] is described as follows: Resveratrol stabilization test in solvents (comparative example). Format: physicochemical. On the procedure:
The stabilization of resveratrol by dimethyl isosorbide, ethylhexyl methoxycrylene and octocrylene was evaluated according to the same protocol as Example 1-a, except that the solubility was evaluated on the same day as to (0D).

Data set [3] in a line: Study of olfactory stability of Base with odor absorber. As to the method:
A Base composition as follows was prepared. In this composition, octocrylene is used as diacetylresveratryl thioctate-stabilizing solvent.
0.6% of each candidate odor absorber was added to one of the base compositions above and the olfactory stability was tested at three temperatures (ambient temperature, 5° C. and 45° C.) and at the following times: • at the beginning (to), • 1 month (1M), • 2 months (2M) and • 3 months (3M).

A short description of data set [4]: Stability of diacetylresveratryl thioctate in the formulation with odor absorber. Format: physicochemical. Conditions: 0.6% odor absorber in Base (0.10% diacetylresveratryl thioctate), two months. As to the method:
A diacetylresveratryl thioctate stability test was carried out for the odor absorbers retained in Example 3, according to the following protocol, for the purpose of confirming the compatibility between the solvent and the odor absorber.

Setting [5] is: listed as ethylhexyl methoxycrylene.

Like-named read-outs stand apart in the source and are kept apart here.

Consider `CCCCCCCCOC(=O)c1ccc(C(=O)OCCCCCCCC)c(C(=O)OCCCCCCCC)c1` [Trioctyl trimellitate], for which, in data set [1], the “Solubility 1 D/AT” value is on record as “Clear”, the “Solubility t0/AT” value was “Partially soluble” and the Stability result was “Yes”. Also, the “Solubility t0/AT” value in data set [1] (listed as trioctyl trimellitate) was “partially soluble”.
With `CCCCCCCCCCC(CO)CCCCCCCC` (stereo not shown) [Octyldodecanol], in data set [1], the “Solubility 1 D/AT” value is on record as “Precipitate”, the “Solubility t0/AT” value is “Insoluble” and the Stability entry is listed as “No”. In addition, in data set [1] (general observation of the applicant), the “stability of diacetylresveratryl thioctate solubilized in a conventional solvent” value was “recrystallizes”.
As to `CCCCC(CC)COC(=O)C(C#N)=C(c1ccccc1)c1ccccc1` (stereo not shown) [Octocrylene], in data set [2], the “Solubility 0 D/AT” value is recorded as “Precipitate”, the “Solubility t0/AT” value is “Soluble fraction” and the Stability result is recorded as “No”.
With `O=C(Oc1ccccc1)c1ccccc1` [Phenyl benzoate], in data set [1], the “Solubility 1 D/AT” value was “Clear”, the “Solubility t0/AT” value is reported as “Partially soluble” and the Stability result was “Yes”. In addition, the “Solubility t0/AT” value in data set [1] (listed as phenyl benzoate) was “partially soluble”.
On to Kaolin, for which, in data set [3], the “olfactory stability t0” value is recorded as “Yes”.
`CCCCC(CC)COC(=O)C(C#N)=C(c1ccccc1)c1ccc(OC)cc1` (stereo not shown) [Ethylhexyl methoxycrylene]: in data set [2], the “Solubility 0 D/AT” value was “Precipitate”, the “Solubility t0/AT” value is listed as “Soluble fraction” and the Stability result was “No”. In data set [1], the “Solubility 1 D/AT” value is recorded as “Clear”, the “Solubility t0/AT” value is reported as “Partially soluble” and the Stability result is “Yes”. In data set [1] (setting [5]), the “Solubility t0/AT” value is given as “partially soluble” and the Stability entry is reported as “particularly satisfactory”.
For the molecule `O=C1CC[C@@H](C(=O)[O-])N1.O=C1CC[C@@H](C(=O)[O-])N1.[Cu+2]` [Copper L-pyrrolidone carboxylate salt], the “olfactory stability 1 M” value in data set [3] (0.6% odor absorber in Base, 1 month, identical at AT, 5° C. and 45° C.) is “Yes”. In addition, in data set [3] (0.6% odor absorber in Base, 2 months, 5° C.), the “olfactory stability 2 M 5° C.” value was “Yes”. Besides, in data set [3] (0.6% odor absorber in Base, 2 months, 45° C.), the “olfactory stability 2 M 45° C.” value is reported as “Yes”. Besides, in data set [3] (0.6% odor absorber in Base, 2 months, ambient temperature), the “olfactory stability 2 M AT” value was “Yes”. For the same molecule, in data set [3] (0.6% odor absorber in Base, 3 months, identical at AT, 5° C. and 45° C.), the “olfactory stability 3 M” value is given as “Yes”. Further, the “olfactory stability t0” value in data set [3] (0.6% odor absorber in Base, identical at AT, 5° C. and 45° C.) is “Yes”. Further, in data set [3] (odor absorber in combination with the Base, up to 3 months), the “olfactory stability, overall conclusion” value was “the most appropriate”. Further, the “degree of diacetylresveratryl thioctate stabilization 5° C.” value in data set [4] (5° C.) is 0.1. The “degree of diacetylresveratryl thioctate stabilization 45° C.” value in data set [4] (45° C.) is recorded as 0.094.
With `CO[C@H]1CO[C@H]2[C@@H]1OC[C@H]2OC` [Dimethyl isosorbide], the “Solubility t0/AT” value in data set [2] (resveratrol in the named solvent, initial, ambient temperature) was “Partially soluble”; in data set [1], “Partially soluble”; in data set [1] (listed as dimethyl isosorbide), “partially soluble”. In data set [2] (resveratrol in the named solvent, same day, ambient temperature), the “Solubility 0 D/AT” value was “Precipitate”. Moreover, the Stability result in data set [2] (stabilization of resveratrol by the named solvent) was “No”; in data set [1], “Yes”. In data set [1], the “Solubility 1 D/AT” value is listed as “Clear”.
